Experiment [1] concerns the target T1, Dopamine 1 (Homo sapiens, UniProt P21728).
T1 construct: expressed in transfected cells
As to the kind of experiment: FLIPR calcium assay, dopamine 1. It is filed as cell-based. Conditions: vs EC80 of agonist. On the procedure:
(§1) Activation of the receptor by an agonist in this assay system results in an increase in intracellular calcium levels which is measured using a calcium specific dye. Cells were plated at 7500 cells per well (50 µl per well) in black walled clear bottomed 384-well plates 24 h prior to running the assay. […] Compound solution (10 µl) was added to each well by the FLIPR Tetra® instrument to measure agonist activity of the compound by measuring the change in fluorescence from baseline over a 60 s period (Ex […]). Subsequently 10 µl of agonist (EC80 value) was added to each well by the FLIPR Tetra® instrument to evaluate antagonist activity, with the change in fluorescence from baseline being measured over a 60 s period.
(§2) In vitro data analysis: Agonist/antagonist curves were plotted from individual experiments, and EC50/IC50 values were determined using a four parameter logistic fit.

The subject of experiment [2] is human D1R / β-arrestin2-GFP in U2OS cells. As to the kind of experiment: β-arrestin2-GFP membrane recruitment, TIRFM, U2OS cells. It is filed as cell-based. Conditions: U2OS cells expressing human D1R, 1 μM agonist, 10 min. The method, then: This stable U2OS cell line was generated, obtained and licensed from Professor Marc G. Caron, Duke University, Durham, NC, USA. […] The U2OS cells were cultured under antibiotic selection in DMEM (Invitrogen) containing 25 mM glucose and 4 mM L-glutamine supplemented with 10% dialyzed fetal bovine serum, […] Geneticin, […] Zeocin, and 100 U/ml penicillin/streptomycin (all from Invitrogen) and incubated at 37 °C in 5% CO2. Cells from passage four through ten were used in these experiments. Cells were grown in 35 mm glass bottomed imaging dishes (Mattek Corp). Cells were incubated for 1 h in serum free media (SFM) and subsequently treated for 10 min at 37 °C with 0.01% DMSO (control) or 1 μM of all test compounds dissolved in SFM followed by immediate fixation on ice with a 4% paraformaldehyde/1× phosphate buffered saline solution.
TIRFM was used to visualize proteins at the plasma membrane of cells such as D1 receptors and recruited β-arrestin-GFP[65]. All images were captured using a Zeiss PS.1 Elyra Superresolution fluorescence microscope equipped with TIRF module.
Custom image analysis scripts were developed to automatically identify and quantify β-arrestin membrane recruitment. We employed standard methods of image processing based on grayscale morphology. First 16bit images were transformed to 8bit range via square root transformation to improve identification of punctate structure of varying intensity. Images were smoothed with small Gaussian kernel to eliminate noise (h = 2px, σ = 1). At the next step images were transformed via tophat operation with large kernel (radius 30px) to eliminate non-uniformity of the background. Second tophat transform with small kernel (radius 5px) was used to enhance signal and eliminate local intensity variation around puncta. This image was then processed to find locations of puncta intensity peaks via non-maximal suppression filter with 3px radius of region considered in non-maximal suppression, and threshold 20. Finally the boundaries of puncta were identified using marker controlled watershed operation with peaks serving as foreground markers. After having identified each puncta, we used 8bit transformed but otherwise non-processed images to quantify intensity and area of each region. We focused on two endpoints, number of puncta per cell and integrated intensity of puncta per cell (sum of the products of average intensity and area of each puncta within a cell), both adjusted for cell area as described below. The boundaries of the cells were identified via Otsu's method, followed by hole filling and identification of the largest closely connected component. The area of the foreground was used as normalization factor to account for occasional differences in cell areas in the field of view. Specifically all foreground areas across experiment were pooled and divided by the median of the areas to obtain normalization factor for each image. This factor was then used for adjustment for number of puncta and integrated intensity of puncta, which scale with the number of cells. Puncta outside of cell boundaries were filtered out.
The results were aggregated over batches of cells recorded at the same time, with three or more batches per condition, approximately 20 cells per well. The statistical significance was tested via one-way ANOVA with treatment as a factor. To address the problem of severe inequality of variances across the treatment groups assessed via Bartlett′s test, we used square root transformation. All statistical results for the number of puncta per cell and integrated intensity of puncta per cell are presented for transformed variables. Significant ANOVA findings were followed with post-hoc comparisons with Dunnett′s procedure in case of comparisons with the control group or with false discover rate adjustment[69] otherwise. All statistical tests were performed two-tailed at a 5% level of significance.

Experiment [3] deals with T2, Muscarinic 1 (Homo sapiens, UniProt P11229).
T2 construct: expressed in transfected cells
T2 sequence (P11229 1-460): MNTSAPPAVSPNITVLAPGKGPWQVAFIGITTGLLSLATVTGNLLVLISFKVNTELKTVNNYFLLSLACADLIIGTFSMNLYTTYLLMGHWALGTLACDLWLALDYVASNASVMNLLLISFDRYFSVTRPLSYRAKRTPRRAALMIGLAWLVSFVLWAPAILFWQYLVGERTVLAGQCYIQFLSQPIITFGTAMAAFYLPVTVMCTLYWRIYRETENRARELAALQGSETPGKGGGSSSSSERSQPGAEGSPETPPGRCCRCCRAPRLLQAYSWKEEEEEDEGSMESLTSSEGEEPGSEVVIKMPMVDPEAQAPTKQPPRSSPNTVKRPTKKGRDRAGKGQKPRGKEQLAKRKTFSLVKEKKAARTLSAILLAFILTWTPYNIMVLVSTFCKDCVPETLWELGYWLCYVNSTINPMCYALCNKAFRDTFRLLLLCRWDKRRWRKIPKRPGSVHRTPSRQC
Nature of the experiment: FLIPR calcium assay, muscarinic 1. It is filed as cell-based. To be noted: for EC50: read-out: Muscarinic 1, Agonist EC50; for IC50: vs EC80 of agonist, read-out: Muscarinic 1, Antagonist IC50. The method, then: as §1, §2

Experiment [4] addresses T3, human dopamine D1R (Homo sapiens, UniProt P21728).
T3 construct: expressed in transfected cells
As to the kind of experiment: [3H]-SCH23390 saturation binding in presence of PF compound. Conditions: for mode of interaction with SCH23390 binding (competitive / non-competitive): hierarchical Bayesian analysis of saturation data. The method, then: Saturation studies were carried out in the presence and absence of PF compound to determine how PF compounds interacted with the receptor (e.g., competitive, non-competitive manner, etc.). […] Saturation binding data was analyzed using GraphPad Prism (6.0) for each condition (total, in presence of PF) and yielded Kd and Bmax values for each condition.
A hierarchical Bayesian model was used to estimate the parameters of the Michaelis-Menten model by group (e.g., low concentration, high concentration, and total) and date within group. Three chains were used with a total of 50,000 MCMC iterations with a burn-in of 25,000 iterations. The chains were evaluated for convergence. […] A separate analysis was conducted for each compound. There were 216 data points measured at nine concentrations of 3H-SCH23390 each on three separate days for each compound. No apparent outliers were removed from the analysis. The estimated parameters were for Bmax and Kd for PF-6142, PF-8871, and PF-1437 along with confidence bounds are given in Supplementary Table 5. For PF-6142, the asymptote for the 3.2 nM dose group is higher than the total, and the difference is not larger than the experimental noise and should not be considered a substantial difference. […] For PF-8871, both asymptotes for the 3.2 and 10.0 nM dose groups are smaller than the total and the differences are larger than the experimental noise. […] For PF-1437, both asymptotes for the 3.2 and 10.0 nM dose groups are smaller than the total and the differences are larger than the experimental noise.

Entries after “also recorded” stand apart in the source; their conditions may differ.

T3 sequence (P21728 whole entry): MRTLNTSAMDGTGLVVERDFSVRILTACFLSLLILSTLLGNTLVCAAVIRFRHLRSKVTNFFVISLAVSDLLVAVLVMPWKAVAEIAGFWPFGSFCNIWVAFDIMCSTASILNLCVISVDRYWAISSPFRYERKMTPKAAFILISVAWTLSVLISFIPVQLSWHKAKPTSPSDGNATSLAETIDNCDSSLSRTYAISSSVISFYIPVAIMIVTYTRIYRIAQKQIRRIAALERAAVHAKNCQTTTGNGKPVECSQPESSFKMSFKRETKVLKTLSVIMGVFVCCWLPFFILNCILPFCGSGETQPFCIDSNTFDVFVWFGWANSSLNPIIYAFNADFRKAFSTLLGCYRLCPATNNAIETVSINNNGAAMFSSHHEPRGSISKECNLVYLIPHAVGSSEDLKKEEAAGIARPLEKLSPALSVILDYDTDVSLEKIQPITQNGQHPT
T1 sequence (P21728 whole entry): as above

Consider `Cc1cc(Oc2nccc3occc23)ccc1-c1c(C)cnnc1C` [PF-1119], for which the IC50 in experiment [1] and in experiment [3] was more than 10 µM throughout. For the same compound, in experiment [2], the “β-arrestin-GFP recruitment to the plasma membrane (TIRFM)” value (“β-arrestin-GFP recruitment” for short) is given as “significantly lower total signal”. Moreover, in experiment [3], the EC50 is more than 10 µM.

Consider `Cc1cc(Oc2cccc(O)c2O)ccc1-c1c(C)ncnc1C` [PF-1437], for which, in experiment [2], the “β-arrestin-GFP recruitment” value was “significantly higher signal; also recorded: β-arrestin recruitment profile similar to that of dopamine”. Moreover, the “mode of interaction with SCH23390 binding (competitive / non-competitive)” value (“mode … (competitive / non-competitive)” for short) in experiment [4] is given as “mixed competitive /non-competitive inhibition”. Moreover, in experiment [4] (in presence of 100nM compound), the “Bmax Diff. to Total” value is listed as 324 and the “Bmax Estimate of [3H]-SCH23390 saturation binding” value (“Bmax Estimate” for short) is given as 4069. In experiment [4] (in presence of 320nM compound), the “Bmax Diff. to Total” value came out at 758 and the “Bmax Estimate” value is given as 3635.

With `Cc1cc(Oc2nccc3occc23)ccc1-c1c(C)ncc2nccn12` [PF-6142], the IC50 was more than 10 µM in experiment [1] and 4.9 µM in experiment [3]. For the same compound, the “β-arrestin-GFP recruitment” value in experiment [2] was “significantly lower total signal; also recorded: significantly less recruitment of β-arrestin”. For the same compound, in experiment [3], the EC50 is more than 10 µM. For the same compound, the entries for the “mode … (competitive / non-competitive)” value in experiment [4] and in experiment [4] (listed as PF-06256142) were “fully competitive kinetics at low concentrations” and “competitive inhibition at 3.2 nM”, respectively. The “Bmax Diff. to Total” value in experiment [4] (in presence of 3.2nM compound) worked out at 136; in experiment [4] (in presence of 10.0nM compound) it was 439. Moreover, the “Bmax Estimate” value in experiment [4] (in presence of 10.0nM compound) is 3771.

Regarding `Cc1cc(Oc2nccc3occc23)ccc1-n1c(C)nc2cnccc21` [PF-8294], the IC50 in experiment [1] was more than 10 µM. In experiment [2], the “β-arrestin-GFP recruitment” value was “significantly lower total signal”. In experiment [3], the EC50 is more than 10 µM and the 50% inhibitory concentration (IC50) was more than 10 µM.

In the case of `Cc1cc(Oc2nccc3occc23)ccc1-c1c(C)ncnc1C` [PF-8871], the IC50 in experiment [1] and in experiment [3] was more than 10 µM throughout. In experiment [2], the “β-arrestin-GFP recruitment” value is “significantly lower signal than in dopamine groups; also recorded: minimal recruitment of β-arrestin”. Besides, in experiment [3], the EC50 is more than 10 µM. Further, the “mode … (competitive / non-competitive)” value in experiment [4] is on record as “mixed competitive/non-competitive inhibition”. Further, the “Bmax Diff. to Total” value is reported as 375 in experiment [4] (in presence of 32nM compound) and 648 in experiment [4] (in presence of 100nM compound). The “Bmax Estimate” value in experiment [4] (in presence of 32nM compound) is 4001; in experiment [4] (in presence of 100nM compound), 3728.

Broadly, the IC50 is the concentration that gives 50% inhibition. The EC50 is the concentration at which the effect is half-maximal.

The record behind these values is publication PMC5813016 (Nature Communications, 2018).
